The record followed here is PubChem BioAssay AID1053145 (Broad Institute, 2014).

Activity calls are given as the source filed them. No rule for the calls is given here.

The subject of this assay is HepG2 viability, CellTiter-Glo ATP luminescence, overnight. Put plainly: HepG2 cell viability, dose response, cytotoxicity control for Trib1 inducer project, ATP luminescence, cherry-pick (AID 1053145).

By AC50 is commonly meant the midpoint of the concentration-response curve, whichever way the signal moves. Take `CN1C(=O)c2cc(NC(=O)c3ccc(C(F)(F)F)cc3)ccc2OC[C@@H]2O[C@@H](CC(=O)NC3Cc4ccccc4C3)CC[C@@H]21`: the AC50 is > 25 µM (inactive).

Turning to `CN1C(=O)c2cc(NC(=O)c3ccc(C(F)(F)F)cc3)ccc2OC[C@@H]2O[C@H](CC(=O)NC3Cc4ccccc4C3)CC[C@@H]21`, the AC50 is > 25 µM (inactive).
